Data: ChEMBL document CHEMBL1146927, “Semi-synthetic preparation of the rare, cytotoxic, deep-sea sourced sponge metabolites discorhabdins P and U” (Bioorg Med Chem Lett, 2006)
Values after ≈ are worked out from the molar mass of the structure shown.

Legend:
Bacillus subtilis = assay: Zone of Bacillus subtilis inhibition at 30 ug; type: functional
P388 = assay: Antiproliferative activity against murine P388D1 cell line; type: functional, cell-based; conditions: Mus musculus
Escherichia coli = assay: Zone of Escherichia coli inhibition at 30 ug; type: functional

| Structure (SMILES) | inhibition zone (IZ) (Bacillus subtilis) [mm] | IC50 (P388) [µg/mL] | inhibition zone (IZ) (Escherichia coli) [mm] |
| --- | --- | --- | --- |
| CSC1=CC(=O)C(Br)=C[C@]12C=CNC1=C2C2=NCCc3c[nH]c(c32)C1=O | 3 | 0.081 (≈ 0.189 µM) | 0 |
| O=C1C=C(SC(=O)c2ccccc2)[C@@]2(C=CNC3=C2C2=NCCc4cn(C(=O)c5ccccc5)c(c42)C3=O)C=C1Br | 0 | 0.918 (≈ 1.47 µM) | 0 |
| O=C1C=C2S[C@H]3C[C@]2(C=C1Br)C1=C(N3)C(=O)c2[nH]cc3c2C1=NCC3 [(+)-DISCORHABDIN B] | 6 | 0.044 (≈ 0.106 µM) | 1 |
| O=C1C(Br)=CC2(C=C1Br)CCNC1=C2C2=NCCc3c[nH]c(c32)C1=O [DISCORHABDIN C] | 8 | 0.062 (≈ 0.134 µM) | 1 |
| CSC1=CC(=O)C(Br)=C[C@]12C=CNC1=C2C2=NCCc3cn(C)c(c32)C1=O [DISCORHABDIN U] | 3 | 0.089 (≈ 0.201 µM) | 0 |
| Cn1cc2c3c1C(=O)C1=C(C3=NCC2)C2(C=C(Br)C(=O)C(Br)=C2)CCN1 [DISCORHABDIN] | 8 | 0.182 (≈ 0.381 µM) | 0 |
